Data from US7741520B2, “Sulfonanilide analogs as selective aromatase modulators (SAMs)” (The Ohio State University Research Foundation, priority 2006, dated 2010).

Key:
[1] = target: T1, aromatase activity in JAR choriocarcinoma placental cells (Homo sapiens, UniProt P11511); experiment: Tritiated water-release assay in JAR cells; format: cell-based; details: 24 h, 15 μM (FIG. 11), read-out: decrease of aromatase activity in JAR cells
T1 construct: JAR choriocarcinoma placental cells (which produce aromatase expression from promoter I.1 mediated by protein kinase C); host or cells: JAR
T1 sequence (P11511 1-503): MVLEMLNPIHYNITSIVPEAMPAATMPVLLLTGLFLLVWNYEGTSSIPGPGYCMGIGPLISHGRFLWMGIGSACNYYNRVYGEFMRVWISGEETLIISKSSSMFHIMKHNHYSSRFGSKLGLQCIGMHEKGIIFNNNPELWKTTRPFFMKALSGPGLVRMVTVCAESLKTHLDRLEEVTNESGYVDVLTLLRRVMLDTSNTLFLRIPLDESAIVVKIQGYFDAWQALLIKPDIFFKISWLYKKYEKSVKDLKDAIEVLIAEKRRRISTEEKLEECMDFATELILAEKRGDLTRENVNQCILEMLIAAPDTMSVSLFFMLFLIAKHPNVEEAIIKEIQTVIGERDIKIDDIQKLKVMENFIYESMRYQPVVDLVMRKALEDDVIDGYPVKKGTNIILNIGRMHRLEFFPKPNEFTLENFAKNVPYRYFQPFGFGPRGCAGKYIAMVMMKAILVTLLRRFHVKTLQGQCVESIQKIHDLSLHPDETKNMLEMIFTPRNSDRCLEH
Procedure: Cell Culture. AR and SK-BR-3 cells were obtained from ATCC (Rockville, Md.). SK-BR-3 cells were maintained in phenol red-free custom media (MEM, Earle's salts, 1.5× amino acids, 2× non-essential amino acids, L-glutamine, 1.5× vitamins, Gibco BRL) supplemented with 10% fetal bovine serum (FBS), 2 mM L-glutamine and 20 mg/L gentamycin. JAR cells were maintained in RPMI 1640 medium with 2 mM L-glutamine adjusted to contain 1.5 g/L sodium bicarbonate, 4.5 g/L glucose, 10 mM HEPES, and 1.0 mM sodium pyruvate, 90%; FBS, 10%. Fetal bovine serum was heat inactivated for 30 min in a 56° C. water bath before use. Cell cultures were grown at 37° C., in a humidified atmosphere of 5% CO2 in a Hereaus CO2 incubator. For all experiments, cells were plated in 6 well plates and grown to subconfluency. Before treatment, the media was changed to a defined one containing DMEM/F12 media (Sigma) with 1.0 mg/mL human albumin (OSU Hospital Pharmacy), 5.0 mg/L human transferin and 5.0 mg/L bovine insulin.
Tritiated water-release assay in JAR and SK-BR-3 cell lines. Measurement of aromatase enzyme activity was based on the tritium water release assay. Cells in six well plates were treated with 0.1% DMSO (control), and inhibitors at the indicated concentrations. After 24 hours, the cells were incubated 3 hours (SK-BR-3 cells) or 1 hour (JAR cells) with fresh media along with 100 nM [1β-^3H]-androst-4-ene-3,17-dione (1 μCi). Subsequently, the reaction mixture was removed, and proteins were precipitated using 10% trichloroacetic acid at 42° C. for 20 min. After a brief centrifugation, the media was extracted three times with an equal amount of chloroform to remove remaining substrate and further treated with dextran-treated charcoal. After centrifugation, a 250-μl aliquot containing the product was counted in 5 ml of liquid scintillation mixture. Results were corrected for blanks and for the cell contents of culture flasks, and results were expressed as picomoles of ^3H2O formed per hour incubation time per million live cells (pmol/h/10^6 cells). To determine the amount of cells in each flask, the cells were lysed and analyzed using the diphenylamine DNA assay adapted to a 96-well plate. IC50 sigmoidal dose-response data were analyzed with Microsoft Excel and the Graphpad Prism (Version 3.0) program.
Diphenylamine DNA Assay To determine the amount of viable cells in each flask, the cells were lysed with 0.5N NaOH aqueous solution and analyzed using the diphenylamine DNA assay adapted to a 96-well plate. DNA standards (0-30 μg) were prepared using double-stranded DNA reconstituted in PBS and added in triplicates directly to the wells. A uniform cell suspension was prepared from the 6 well plate in 300 μl 0.5N NaOH aqueous solution, and 60 μl of the unknown samples were added in triplicates to separate wells. A solution of 0.16% acetaldehyde in water was prepared and mixed at a 1:5 ratio with perchloric acid (20% vol/vol). This solution (60 μl) was added to each well along with 100 μl of a 4% diphenylamine solution in glacial acetic acid. The plates were incubated at 37° C. for 24 hours. After centrifugation, 100 μl supernatant of each well was transferred to a new 96 well plate, and the OD595 was measured using a microplater reader. The DNA concentration was determined by extrapolation to the standard curve and the amount of cells/well was calculated using the equation: 1 cell≈7 pg DNA.

SK-BR-3 cells = experiment: Cell viability analysis (MTT assay) in SK-BR-3 cells; format: cell-based, human; details: 10 μM (FIG. 15)
Procedure: Cell Viability Analysis. The effect of nimesulides derivatives on SK-BR-3 cell viability was assessed by using the 3-(4,5-dimethylthiazol-2-yl)-2,5-diphenyl-2H-tetrazolium bromide assay in six replicates. Cells were grown in custom media in 96-well, flat-bottomed plates for 24 h, and were exposed to various concentrations of nimesulide derivatives dissolved in DMSO (final concentration ≦0.1%) in define media for different time intervals. Controls received DMSO vehicle at a concentration equal to that in drug-treated cells. The medium was removed, replaced by 200 μl of 0.5 mg/ml of 3-(4,5-dimethylthiazol-2-yl)-2,5-diphenyl-2H-tetrazolium bromide in fresh media, and cells were incubated in the CO2 incubator at 37° C. for 2 h. Supernatants were removed from the wells, and the reduced 3-(4,5-dimethylthiazol-2-yl)-2,5-diphenyl-2H-tetrazolium bromide dye was solubilized in 200 μl/well DMSO. Absorbance at 570 nm was determined on a plate reader.

SMILES | inhibition at 15 µM [1] [%] | cell cytotoxicity (MTT) (SK-BR-3 cells)
CN(c1ccc([N+](=O)[O-])cc1OCc1ccc2ccccc2c1)S(C)(=O)=O [Compound 28c, N-methyl-N-[2-(β-naphthylmethoxy) 4-nitrophenyl]methanesulfonamide] | < 50 | did not cause significant cell cytotoxicity
CN(c1ccc([N+](=O)[O-])cc1OCc1ccc(F)cc1)S(C)(=O)=O [Compound 33c, N-methyl-N-[2-(4′-fluorobenzyloxy)-4-nitrophenyl]methanesulfonamide] | < 50 | did not cause significant cell cytotoxicity
CN(c1ccc([N+](=O)[O-])cc1OCc1ccccc1-c1ccccc1)S(C)(=O)=O [Compound 29c, N-methyl-N-[2-(2′-phenylbenzyloxy)-4-nitrophenyl]methanesulfonamide] | < 50 | did not cause significant cell cytotoxicity
CN(c1ccc([N+](=O)[O-])cc1OCc1ccccc1)S(C)(=O)=O [Compound 26f, N-methyl-N-(2-benzyloxy-4-nitrophenyl) methanesulfonamide] | < 50 | did not cause significant cell cytotoxicity
CN(c1ccc([N+](=O)[O-])cc1OCc1ccc([N+](=O)[O-])cc1)S(C)(=O)=O [Compound 27c, N-methyl-N-[2-(4′-nitrobenzyloxy)-4-nitrophenyl]methanesulfonamide] | < 50 | did not cause significant cell cytotoxicity
Cc1ccc(COc2cc([N+](=O)[O-])ccc2N(C)S(C)(=O)=O)cc1 [Compound 30c, N-methyl-N-[2-(4′-methylbenzyloxy)-4-nitrophenyl]methanesulfonamide] | < 50 | did not cause significant cell cytotoxicity
